SMILES | melting point
N#Cc1nn(-c2c(Cl)cc(C(F)(F)F)cc2Cl)c(I)c1SC(F)(F)F | 187 to 188 °C
CS(=O)(=O)NC(=O)C1(CCCCCCCCCCCCC2(C(=O)O)CC2)CC1 | 97.5 to 99.4 °C
N#Cc1ccc(N2C(=O)CNC2=O)c2ccccc12 | > 275 °C
CC(Br)c1ccc2occ(C#N)c(=O)c2c1 (stereo not drawn) | 162 to 164 °C
CC(C)c1cc2c(-c3nc4cnccc4[nH]3)ccc(OC(F)F)c2o1 | 201 °C
O=c1cc(NCCN2CCC(c3noc4cc(F)ccc34)CC2)cn[nH]1 | 97 to 99 °C
CCOC(=O)c1c(COC(C)=O)cccc1S(N)(=O)=O | 98 to 100 °C
CC(C)CCCC(C)C1CCC2C3=C(CCC21C)C1(C)CCC(O)C(C)(C)C1CC3 (stereo not drawn) | 154 to 155 °C
COc1ccc(-n2c3ccccc3c3cc(C=C(C#N)c4cc(C(F)(F)F)cc(C(F)(F)F)c4)ccc32)cc1 | 198 to 200 °C
COc1cc(CCN2CCc3cc(O)ccc3C2)cc(OC)c1OC | 180 to 186 °C
CCOC(C)c1cc(C(=O)OC)c(N)cc1C(F)(F)F (stereo not drawn) | 100 to 103 °C
Cc1ccc(OCC2CN(C(C)C)C(=O)O2)cn1 (stereo not drawn) | 86 to 88 °C
Cn1c(=O)c(C#N)c(Cl)c2cc(Cl)ccc21 | 256 °C
Cn1c(=O)n(O)c(=O)c2cc(F)c(F)cc21 | 239 to 241 °C
CC1=NS(=O)(=O)N(C)C(Oc2ccc([N+](=O)[O-])cc2)=N1 | 194 to 197 °C
CCOC(=O)c1ccncn1 | 36.8 °C
COc1ccc(C2CNCc3c2ccc(OC)c3Cl)cc1OC (stereo not drawn) | 130 to 132 °C
CCn1nc(C(C)(C)C)cc1C(=O)Nc1ccc(F)c(C(=O)N(C)C)c1 | 93 to 95 °C
COc1cc(-c2cc(=O)c3c(OC)c(OC)c(OC)c(OC)c3o2)ccc1OCc1ccccc1 | 109 to 111 °C
Cc1ccc(OC2=C(Oc3ccc([N+](=O)[O-])cc3)C(F)(F)C(F)(F)C2(F)F)cc1 | 72 to 76 °C
CN(C)c1cc2nc(C(C)(C)C)sc2cc1[N+](=O)[O-] | 65 to 68 °C
CS(=O)(=O)Nc1cc(NS(C)(=O)=O)cc([N+](=O)[O-])c1 | 223 to 224 °C
CC(C)(C)OC(=O)N1CCCN(c2cc[nH]c(=S)c2C#N)CC1 | 203 to 205 °C
CC(=CS(N)(=O)=O)c1ccccc1 | 101 to 102 °C
Oc1ccc2c(nc(C(F)F)n2-c2nc(N3CCOCC3)nc(N3CCOCC3)n2)c1Cl | > 250 °C
COc1ccc(Nc2nc(Cl)nc(NC3CC3)n2)cc1F | 186 °C

SMILES | melting point
CCc1[nH]n(C2CCCC2)c2nc(-c3cc(OCCN4CCOCC4)cc(OCCN4CCOCC4)c3)nc(=O)c1-2 | 182 to 183 °C
CC(C)(C)OC(=O)Nc1ccc(-c2cc(F)ccc2F)cc1[N+](=O)[O-] | 104 °C
Cc1c(I)sc(I)c1Br | 81 to 82 °C
COc1ncnc2cc(Br)sc12 | 111 to 113 °C
FC(F)(F)c1cc(Cl)c(-c2nc(C(F)(F)F)c(Br)[nH]2)c(Cl)c1 | 295 °C
CCC1=C(C(=O)Nc2ccc(Cl)c(C(=O)OC(C)C)c2)SCCO1 | 90 to 92 °C
CC1(C)C(=O)Nc2cc(C=O)ccc2N(CC2CC2)C1=O | 124 to 125 °C
COc1cc(C#N)ccc1-c1cc(-c2cc(C#N)ccc2OC)on1 | 271 to 273 °C
CCN(CC)c1ccc2cc(N)c(=O)oc2c1 | 85 to 87 °C
Cc1nnc2n1-c1sc(CCCN3CCOCC3)cc1C(c1ccccc1Cl)NC2 (stereo not drawn) | 135 to 138 °C
CC(C)S(=O)(=O)c1ccc(S(=O)(=O)C(C)C)nc1 | 181 °C
COCc1noc(N2CCC([C@H]3C[C@H]3CCOc3ccc(S(C)(=O)=O)cn3)CC2)n1 | 68 to 70 °C
O=[N+]([O-])c1cccc(/C=C/c2nc(C3CCCCC3)cs2)c1 | 102 to 104 °C
Cn1ncc(C(=O)C2CC2)c1S(N)(=O)=O | 125 to 127 °C
CS(=O)(=O)c1ccc(-c2ccc3cnc(Nc4ccc(N5CCOCC5)nc4)nn23)cc1 | 171 to 177 °C
O=CNc1ccc(Cl)cc1C(=O)c1ccccc1Cl | 106 to 107 °C
O=C1COc2cc(Sc3ccc(O)c(O)c3)ccc2N1 | 236 to 238 °C
COCOc1cc(C=O)c2nc3cccc(OCOC)c3nc2c1 | 148 to 150 °C
COc1ccc2c(c1)C(c1ccc(N)cc1)=NN(C(=O)C1CC1)C(C)C2 (stereo not drawn) | 93 to 95 °C
CCCN1CCN(c2nc3ccc(N=CN(C)C)cc3nc2N2CCN(CCC)CC2)CC1 | 95.5 to 98 °C
COc1ccc(C(=O)C2=CCCCC2)c(Cl)c1Cl | 126 to 129 °C
Cn1cc(C=O)cc1C(=O)O | 178 to 180 °C
CS(=O)(=O)Nc1ccc2c(c1)c(C(=O)C(=O)NC1=CC(=O)OC1)cn2Cc1ccc(C(F)(F)F)cc1 | 267 to 269 °C
COCC1CC(Cn2ccnc2)(c2ccc(Cl)cc2)N(C)O1 (stereo not drawn) | 123 to 126 °C
O=S(Cc1ccccc1)c1ncc(Br)cn1 (stereo not drawn) | 101 °C

Continued, values first:

melting point | SMILES
78 to 79 °C | CCOCc1cc2ccccc2oc1=Nc1ccc(OC)cc1
234 to 235 °C | O=C1NC(=O)C(c2cn3c4c(cccc24)CCC3)=C1c1ccc(F)cc1
277 to 278 °C | Cc1cc(C)cc(S(=O)(=O)c2c(C(=O)O)[nH]c3ccc(Cl)cc23)c1
136 to 139 °C | COC(=O)c1ccc(Cn2ccc(OCc3ccc(F)cc3F)c(Br)c2=O)cc1
256 to 259 °C | COc1ccc(-c2nnc3c4ccccc4c(Nc4cccc(-c5nnn(C)n5)c4)nn23)cc1
214 to 217 °C | O=C(O)c1cc(-n2c(-c3ccc(O)cc3)cc3c2CCCC3)ccc1O
194 to 195 °C | O=c1[nH]c(=O)n(Cc2ccccc2)cc1C(F)(F)F
198 to 199 °C | CCNc1nnc2ccc(-c3cccc(N(C)C(=O)CC)c3)nn12
246 to 248 °C | O=C(O)COc1cccc(-c2n[nH]c3c2Cc2ccccc2-3)c1
113 to 115 °C | CC1(C)CC(N(CCCCO)S(C)(=O)=O)c2cc(OCc3ccccc3)ccc2O1 (stereo not drawn)
174 to 177 °C | O=S(=O)(c1ccc(Cl)cc1)N1CCC[C@@H](Nc2nccc(-c3c(-c4cccc(O)c4)nc4sccn34)n2)C1
168 °C | CCCCNCCC(=O)Nc1ccc2c(c1)C(=O)c1cc(NC(=O)CCNCCCC)ccc1C2=O
212 to 213 °C | O=C1N[C@H](Cc2ccc(C(F)(F)F)cc2)[C@H](c2ccncc2)O1 (racemic)
185 to 187 °C | CCCCCCCCC(=O)NCc1ccc(C#N)cc1
198 to 199 °C | O=C(Cc1ccccc1C(=O)O)Nc1cccc(/C=C/c2csc(C3CCC3)n2)c1
114 to 117 °C | CC(=O)NNc1ccc(N(Cc2ccccc2)C(=S)Nc2ccccc2)cc1
207 to 210 °C | O=C(O)COc1cccc2c1Cc1sc(SCC(c3ccccc3)c3ccccc3)nc1-2
147 to 150 °C | CC(=O)Cc1cc([C@]2(c3cccc(-c4cccnc4F)c3)N=C(N)N(C)C2=O)cn1CCCF
198 to 203 °C | CCS(=O)(=O)c1ccc(C2=C(c3ccc(S(C)(=O)=O)cc3)OC(C)(C)C2=O)cc1
106 to 108 °C | CCCCNC(=O)Oc1ccc(Oc2ccc(Cl)cc2)cc1
> 250 °C | NS(=O)(=O)c1nnc(NC(=O)c2ccccc2O)s1
251 °C | NC(=O)c1[nH]c2cccnc2c1Sc1ccccc1
70 to 71 °C | CC(=O)n1nc(C)c2ccccc21
218 to 220 °C | COc1ccnc(CCc2nc3cc(-c4ccc(S(=O)(=O)NCCO)cc4)cnc3[nH]2)c1

melting point | SMILES
135 °C | Cc1ccc2c(=O)nc(-c3cccc(CCC(=O)OC(C)(C)C)n3)sc2c1
192 to 193 °C | CNC(=O)N(C)c1ccc(Cl)c(COc2cccn3c(Br)c(C)nc23)c1Cl
94 to 95 °C | CC(C)CC(=O)N[C@@H](Cc1ccccc1)C(=O)CSCc1ccco1
176 to 178 °C | CNC(=O)c1ccc([C@@H]2C[C@H]3C=C(c4c[nH]c(-c5ccc(F)c(Cl)c5)c4-c4ccncc4)CCN3C2)cc1
144 to 146 °C | CC(=O)OCC1=C(C(=O)OC(c2ccccc2)c2ccccc2)N2C(=O)C(NC(=O)Cc3csc(-c4c(O)cccc4O)n3)C2SC1 (stereo not drawn)
149 °C | Cc1cccc(C)c1NC(=O)CN1CCN(Cc2ccccc2)CC1C(C)O (stereo not drawn)
153 to 155 °C | CCCCOc1cc(/C=C/C(=O)O)n(Cc2ccc(C(F)(F)F)cc2)n1
172 to 173 °C | O=C(NC(Cc1ccccc1)C(=O)O)OCc1ccc(C#Cc2ccccc2)cc1 (stereo not drawn)
181 to 182 °C | CC(C)c1ccc2c(c1)c(S(=O)(=O)c1ccccc1C(C)C)c(CC(C)(C)C(=O)O)n2Cc1ccc(Cl)cc1
66.6 to 70 °C | O=C1NC(=O)C(Cc2ccc(OCCn3cc(C(c4ccccc4)(c4ccccc4)c4ccccc4)c4ccccc43)cc2)S1 (stereo not drawn)
103 °C | CCOC(=O)C(Sc1ccc(O)cc1)c1ccc(-c2cccs2)cc1 (stereo not drawn)
110 °C | CC(C)(O/N=C(\C(=O)Sc1nc2ccccc2s1)c1csc(N)n1)C(=O)OC(c1ccccc1)c1ccccc1
272 to 274 °C | COCc1nc2cccc(C(=O)O)c2n1Cc1ccc(-c2ccccc2-c2nnn[nH]2)cc1
115 to 116 °C | CC1=C(C(=O)OCCN(C)Cc2ccc(Cl)cc2)C(c2cccc([N+](=O)[O-])c2)C(C(=O)OCC2CC2)=C(C)N1 (stereo not drawn)
77 °C | C=CCN1C(=O)C(C)N(c2ccc(Oc3ccccc3)cc2)C1=S (stereo not drawn)
216 to 217 °C | COCCN(c1cccc2cc(C(=O)O)[nH]c12)S(=O)(=O)c1cccs1
96 to 99 °C | COc1cc(N)c(Cl)cc1C(=O)NCC1CCN(CCCCCC(=O)c2ccc(O)cc2O)CC1
154 to 155 °C | Cc1c(C(=O)N[C@H](C)[C@](O)(Cn2cncn2)c2ccc(F)cc2F)cnn1-c1ccc(Cl)cc1
> 120 °C | CCCCc1nc(C(O)CC)c(C(N)=O)n1Cc1ccc(-c2ccccc2C(=O)O)cc1 (stereo not drawn)
234 to 237 °C | CC(=O)OCC1CCn2c(c(C3=C(c4coc5ccccc45)C(=O)NC3=O)c3ccccc32)C1 (stereo not drawn)
46 to 48 °C | CCN(CC)c1ccc(C(=O)c2ccccc2)c(O)c1
50 to 53 °C | CCCc1c(OCCCOc2ccc(C(C)=O)c(OCCCC(=O)O)c2CCC)ccc(C(C)=O)c1O
161 °C | COc1ccc(Cn2[nH]c(N)cc2=O)cc1

From a melting point compilation (Tetko et al.; mined from patent text by program, amines drawn as free bases though some values may be those of a salt)
